Laboratory results published in paper PMC12275099, “VX-445 (elexacaftor) inhibits chloride secretion across human bronchial epithelial cells by directly blocking KCa3.1 channels” (PNAS Nexus, 2025).

Molecular target: KCa2.3 (Homo sapiens, UniProt Q9UGI6)
Assay: Excised inside-out patch-clamp on HEK cells expressing KCa2.3
Type: biochemical
Conditions: 10 µM; 1 µM free Ca2+; n = 4; VX-659 added subsequent to VX-445; read-out: inhibition of KCa2.3 currents
Experimental: As above, we performed excised patch-clamp recordings on HEK cells heterologously expressing KCa2.3 or KCa2.2, in order to assess the activity of C2 CFTR corrector compounds. […] In contrast, the subsequent addition of 10 µM VX-659 yielded an almost complete inhibition of KCa2.3 currents, averaging 91 ± 3% (n = 4).
HEK cells stably expressing KCa3.1 (IK1, SK4), KCa2.3 (SK3), and KCa2.2 (SK2) were generated and cultured as previously described by us ([37], [66–71]).
HEK cells expressing the channel of interest were plated onto poly-L-lysine-coated glass coverslips 1–2 days prior to patch-clamp analysis. Electrophysiological recordings in the excised, inside-out, and whole-cell patch-clamp configurations were performed as recently described ([14]). For excised patch-clamp recordings, the pipette solution contained (in mM): 140 K-gluconate, 5 KCl, 1 CaCl2, 1 MgCl2, and 10 HEPES. The pH was adjusted to 7.2 with KOH. The bath solution contained (in mM): 145 K-gluconate, 5 KCl, 1.3 MgCl2, 10 HEPES, and 1 EGTA. Sufficient CaCl2 was added to obtain the desired free Ca^2+ concentration at a pH of 7.2 (adjusted with KOH). When recording KCa3.1 channels, ATP (300 µM) was added to the bath to diminish channel rundown ([73]). All recordings were carried out at a voltage of −100 mV, referenced to the extracellular compartment, as is standard. The apparent Ki and Hill coefficient for each CFTR corrector on KCa3.1, KCa2.3, and KCa2.2 were determined during a continuous recording by step-wise addition of increasing concentrations of compound and fitting the resultant relative remaining current to a Hill equation (Prism v. 10.1.0). The zero current level was determined by the addition of a 0 Ca^2+ solution (zero-added Ca^2+ plus 1 mM EGTA) at the end of the experiment. […] Current–voltage relationships were determined by stepping from a holding potential of −80 mV to +80 mV in 20 mV increments for 400 ms. The middle 300 ms of each trace was selected to avoid any influence of capacitive transients, and average currents were calculated for each voltage via the I–V tool in Clampfit. […]

KCa2.3, sequence (Q9UGI6 whole entry): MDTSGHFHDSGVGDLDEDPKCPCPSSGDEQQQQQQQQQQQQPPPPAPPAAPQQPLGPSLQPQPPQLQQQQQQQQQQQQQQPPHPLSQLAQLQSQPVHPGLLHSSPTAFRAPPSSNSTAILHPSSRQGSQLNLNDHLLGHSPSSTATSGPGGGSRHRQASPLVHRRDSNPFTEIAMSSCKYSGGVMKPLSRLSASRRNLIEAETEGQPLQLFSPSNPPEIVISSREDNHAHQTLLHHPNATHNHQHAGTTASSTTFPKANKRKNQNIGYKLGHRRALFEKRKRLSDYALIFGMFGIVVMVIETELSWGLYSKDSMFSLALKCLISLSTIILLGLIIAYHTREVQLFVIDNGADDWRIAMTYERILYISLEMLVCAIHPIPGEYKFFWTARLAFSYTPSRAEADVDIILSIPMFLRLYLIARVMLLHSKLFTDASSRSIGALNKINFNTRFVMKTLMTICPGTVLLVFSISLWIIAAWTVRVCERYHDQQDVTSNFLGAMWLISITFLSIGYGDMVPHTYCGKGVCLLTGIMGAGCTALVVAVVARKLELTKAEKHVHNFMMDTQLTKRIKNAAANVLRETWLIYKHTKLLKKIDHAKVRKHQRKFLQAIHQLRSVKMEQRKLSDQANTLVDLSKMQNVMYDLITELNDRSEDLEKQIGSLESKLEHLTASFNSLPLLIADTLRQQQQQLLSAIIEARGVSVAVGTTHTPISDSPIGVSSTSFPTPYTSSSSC

## Cc1nn(C)cc1S(=O)(=O)NC(=O)c1ccc(-n2ccc(OCC(C)(C)C(F)(F)F)n2)nc1N1C[C@@H](C)CC1(C)C [VX-445, elexacaftor]
  inhibition at 10 µM: 15 ± 5%
